Here are results for 1 cell line from the supplement of paper PMC10307832.

Experiment in all cases: relative viability (nuclei count vs DMSO), 5 days (fraction); higher = more cells survive
Compound in experiment [1]: CC1=CC(=NN1)NC2=CC(=NC(=N2)/C=C/C3=CC=CC=C3)N4CCN(CC4)C + NC(=O)Nc1cc(-c2cccc(F)c2)sc1C(=O)N[C@H]1CCCNC1 [AZD7762] (partner 0.2 µM)
The gist of the method: (§1)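 Values are medians from duplicate plates. Each reflects relative viability, defined as the nuclei count of treated wells over that of vehicle wells. Lung cancer cell lines in 1536-well plates were pin-tool dosed one day after seeding with one drug alone or with a fixed anchor-drug dose plus five library-drug doses (not always all listed) in √10 steps, then fixed, stained and imaged at 4× after 5 days.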

Compound in experiment [2]: COC1=CC(c2cc3ccccc3[nH]2)=N/C1=C\c1[nH]c(C)cc1C [Obatoclax] + CC(C)C[C@H](NC(=O)[C@H](Cc1ccccc1)NC(=O)c1cnccn1)B(O)O [Bortezomib] (partner 0.002 µM)
The gist of the method:
as §1

Compound in experiment [3]: COC1=CC(c2cc3ccccc3[nH]2)=N/C1=C\c1[nH]c(C)cc1C [Obatoclax] + CC(=O)c1c(C)c2cnc(Nc3ccc(N4CCNCC4)cn3)nc2n(C2CCCC2)c1=O [Palbociclib] (partner 0.5 µM)
The gist of the method:
as §1

Compound in experiment [4]: CC(C)C[C@H](NC(=O)[C@H](Cc1ccccc1)NC(=O)c1cnccn1)B(O)O [Bortezomib] + Nc1ncn([C@H]2C[C@H](O)[C@@H](CO)O2)c(=O)n1 [Decitabine] (partner 2 µM)
In a few lines:
as §1

For NCI-H650, the relative viability is 1.26 in experiment [1] (first compound 0.08 µM); 1.02 in experiment [1] (first compound 0.253 µM); 1.29 in experiment [1] (first compound 0.8 µM); 0.736 in experiment [1] (first compound 2.53 µM); 0.187 in experiment [1] (first compound 8 µM); 0.795 in experiment [2] (first compound 0.01 µM). The relative viability in experiment [2] (first compound 0.03162 µM) worked out at 0.732; in experiment [2] (first compound 0.1 µM), 0.455; in experiment [2] (first compound 0.3162 µM), 0.504; in experiment [2] (first compound 1 µM) it was 0.337; in experiment [3] (first compound 0.01 µM), 0.319; in experiment [3] (first compound 0.03162 µM) it was 0.352. Moreover, the relative viability came out at 0.178 in experiment [3] (first compound 0.3162 µM); 0.184 in experiment [3] (first compound 1 µM); 0.332 in experiment [4] (first compound 0.0002 µM); 0.347 in experiment [4] (first compound 0.000632 µM); 0.286 in experiment [4] (first compound 0.002 µM); 0.216 in experiment [4] (first compound 0.006325 µM). Moreover, the relative viability in experiment [4] (first compound 0.02 µM) was 0.147.
